Data published in patent publication US6960614B2, “Oxygenated esters of 4-lodo phenylamino benzhydroxamic acids” (Warner-Lambert Company, priority 2000, dated 2005).
pIC50: −log10 of the molar value.

Test system: MEK
Test: Cellular Assay for Measuring MEK Inhibition (inhibition of ERK phosphorylation in C26 cells, Western blot)
Format: cell-based, murine
Details: for % Inhibition @ 0.1 μM / % Inhibition @ 1 μM / % Inhibition @ 10 μM: ERK phosphorylation in C26 cells; for pIC50: inhibition of ERK phosphorylation in murine colon 26 (C26) carcinoma cells, determined graphically from dose response curve
Procedure: The evaluation of the compounds as MEK inhibitors was performed in an assay that measures their ability to inhibit phosphorylation of MAP kinase […]) in murine colon 26 (C26) carcinoma cells. Since ERK1 and ERK2 represent the only known substrates for MEK, measurement of inhibition of ERK phosphorylation in cells provides direct readout of cellular MEK inhibition by the compounds of the invention. Briefly, the assay involves treating exponentially growing C26 cells with varying concentrations of the test compound (or vehicle control) for […] at 37° C. Cells are then rinsed free of compound/vehicle and lysed in a solution containing 70 mM NaCl, 50 mM glycerol phosphate, 10 mM HEPES, pH 7.4, 1% Triton X-100, 1 mM Na3VO4, 100 μM PMSF, 10 μM leupeptin and 10 μM pepstatin. Supernatants are then subjected to gel electrophoresis and Western blotting using a primary antibody recognizing dually phosphorylated ERK1 and ERK2. To evaluate total MAPK levels, blots were subsequently ‘stripped’ and re-probed with a 1:1 mixture of polyclonal antibodies recognizing unphosphorylated ERK1 and ERK2.

Row | pIC50 | Structure (SMILES) | % Inhibition @ 0.1 μM | % Inhibition @ 1 μM | % Inhibition @ 10 μM
1 |  | CC(CO)ONC(=O)c1cc(Br)c(F)c(F)c1Nc1ccc(I)cc1F (centres unmarked) [Example 129, 5-Bromo-3,4-difluoro-2-(2-fluoro-4-iodo-phenylamino)-N-(2-hydroxy-1-methyl-ethoxy)-benzamide] | 100% | 100% | 
2 | 8.40 | CC(CO)ONC(=O)c1cc(Cl)c(F)c(F)c1Nc1ccc(I)cc1F (centres unmarked) [Example 130, 5-Chloro-3,4-difluoro-2-(2-fluoro-4-iodo-phenylamino)-N-(2-hydroxy-1-methyl-ethoxy)-benzamide] |  |  | 
3 |  | CC(CO)ONC(=O)c1cc(F)c(F)cc1Nc1ccc(I)cc1F (centres unmarked) [Example 131, 4,5-Difluoro-2-(2-fluoro-4-iodo-phenylamino)-N-(2-hydroxy-1-methyl-ethoxy)-benzamide] | 78.7% | 91.3% | 
4 |  | CC(CO)ONC(=O)c1cc(Cl)c(F)c(F)c1Nc1ccc(F)cc1F (centres unmarked) [Example 132, 5-Chloro-2-(2,4-difluoro-phenylamino)-3,4-difluoro-N-(2-hydroxy-1-methyl-ethoxy)-benzamide] |  | 45.7% | 80.6%
5 |  | CC(CO)ONC(=O)c1ccc(F)c(F)c1Nc1ccc(F)cc1F (centres unmarked) [Example 133, 2-(2,4-Difluoro-phenylamino)-3,4-difluoro-N-(2-hydroxy-1-methyl-ethoxy)-benzamide] | 0% | 26.4% | 
6 | 6.43 | COCCONC(=O)c1ccc(F)c(F)c1Nc1ccc(I)cc1Cl [Example 134, 2-(2-Chloro-4-iodo-phenylamino)-3,4-difluoro-N-(2-methoxy-ethoxy)-benzamide] |  |  | 
7 |  | COCCONC(=O)c1cc(F)c(F)c(F)c1Nc1ccc(I)cc1Cl [Example 135, 2-(2-Chloro-4-iodo-phenylamino)-3,4,5-trifluoro-N-(2-methoxy-ethoxy)-benzamide] | 0% | 41.4% | 
8 | 6.60 | COCCONC(=O)c1ccc(F)c(F)c1Nc1ccc(I)cc1C [Example 136, 3,4-Difluoro-2-(4-iodo-2-methyl-phenylamino)-N-(2-methoxy-ethoxy)-benzamide] |  |  | 
9 | 7.00 | COCCONC(=O)c1cc(Br)c(F)c(F)c1Nc1ccc(I)cc1C [Example 137, 5-Bromo-3,4-difluoro-2-(4-iodo-2-methyl-phenylamino)-N-(2-methoxy-ethoxy)-benzamide] |  |  | 
10 |  | COCCONC(=O)c1cc(F)c(F)c(F)c1Nc1ccc(I)cc1C [Example 138, 3,4,5-Trifluoro-2-(4-iodo-2-methyl-phenylamino)-N-(2-methoxy-ethoxy)-benzamide] | 0% | 19.6% | 
11 | 6.44 | COCCONC(=O)c1cc(Br)c(F)c(F)c1Nc1ccc(I)cc1Cl [Example 139, 5-Bromo-2-(2-chloro-4-iodo-phenylamino)-3,4-difluoro-N-(2-methoxy-ethoxy)-benzamide] |  |  | 
12 | 6.35 | COCCONC(=O)c1cc(Cl)c(F)c(F)c1Nc1ccc(I)cc1Cl [Example 140, 5-Chloro-2-(2-chloro-4-iodo-phenylamino)-3,4-difluoro-N-(2-methoxy-ethoxy)-benzamide] |  |  | 
13 |  | COCCONC(=O)c1cc(Cl)c(F)c(F)c1Nc1ccc(I)cc1C [Example 141, 5-Chloro-3,4-difluoro-2-(4-iodo-2-methyl-phenylamino)-N-(2-methoxy-ethoxy)-benzamide] | 38% | 92.7% | 
14 |  | COCCONC(=O)c1cc(Cl)c(F)c(F)c1Nc1ccc(I)cc1F [Example 142, 5-Chloro-3,4-difluoro-2-(2-fluoro-4-iodo-phenylamino)-N-(2-methoxy-ethoxy)-benzamide] | 31% | 91.4% | 
15 | 6.22 | O=C(NOCC(O)CN1CCOCC1)c1ccc(F)c(F)c1Nc1ccc(I)cc1Cl (centres unmarked) [Example 143, 2-(2-Chloro-4-iodo-phenylamino)-3,4-difluoro-N-(2-hydroxy-3-morpholin-4-yl-propoxy)-benzamide] |  |  | 
16 | 7.00 | O=C(NOCC(O)CN1CCOCC1)c1cc(F)c(F)c(F)c1Nc1ccc(I)cc1Cl (centres unmarked) [Example 145, 2-(2-Chloro-4-iodo-phenylamino)-3,4,5-trifluoro-N-(2-hydroxy-3-morpholin-4-yl-propoxy)-benzamide] |  |  | 
17 |  | Cc1cc(I)ccc1Nc1c(C(=O)NOCC(O)CN2CCOCC2)cc(F)c(F)c1F (centres unmarked) [Example 146, 3,4,5-Trifluoro-N-(2-hydroxy-3-morpholin-4-yl-propoxy)-2-(4-iodo-2-methyl-phenylamino)-benzamide] | 0% | 40.5% | 
18 | 7.00 | Cc1cc(I)ccc1Nc1c(C(=O)NOCC(O)CN2CCOCC2)cc(Br)c(F)c1F (centres unmarked) [Example 147, 5-Bromo-3,4-difluoro-N-(2-hydroxy-3-morpholin-4-yl-propoxy)-2-(4-iodo-2-methyl-phenylamino)-benzamide] |  |  | 

Row | pIC50 | Structure (SMILES) | % Inhibition @ 0.1 μM | % Inhibition @ 1 μM | % Inhibition @ 10 μM
19 | 6.64 | Cc1cc(I)ccc1Nc1c(C(=O)NOCC(O)CN2CCOCC2)ccc(F)c1F (centres unmarked) [Example 148, 3,4-Difluoro-N-(2-hydroxy-3-morpholin-4-yl-propoxy)-2-(4-iodo-2-methyl-phenylamino)-benzamide] |  |  | 
20 | 6.77 | O=C(NOCC(O)CN1CCOCC1)c1cc(Cl)c(F)c(F)c1Nc1ccc(I)cc1Cl (centres unmarked) [Example 149, 5-Chloro-2-(2-chloro-4-iodo-phenylamino)-3,4-difluoro-N-(2-hydroxy-3-morpholin-4-yl-propoxy)-benzamide] |  |  | 
21 |  | Cc1cc(I)ccc1Nc1c(C(=O)NOCC(O)CN2CCOCC2)cc(Cl)c(F)c1F (centres unmarked) [Example 150, 5-Chloro-3,4-difluoro-N-(2-hydroxy-3-morpholin-4-yl-propoxy)-2-(4-iodo-2-methyl-phenylamino)-benzamide] | 49% | 99.9% | 
22 | 7.39 | O=C(NOCC(O)CN1CCOCC1)c1ccc(F)c(F)c1Nc1ccc(I)cc1F (centres unmarked) [Example 151, 3,4-Difluoro-2-(2-fluoro-4-iodo-phenylamino)-N-(2-hydroxy-3-morpholin-4-yl-propoxy)-benzamide] |  |  | 
23 |  | O=C(NOCC(O)CN1CCOCC1)c1cc(Cl)c(F)c(F)c1Nc1ccc(I)cc1F (centres unmarked) [Example 152, 5-Chloro-3,4-difluoro-2-(2-fluoro-4-iodo-phenylamino)-N-(2-hydroxy-3-morpholin-4-yl-propoxy)-benzamide] | 59.2% | 90.3% | 
24 |  | O=C(NOCC(O)CN1CCOCC1)c1cc(F)c(F)cc1Nc1ccc(I)cc1F (centres unmarked) [Example 153, 4,5-Difluoro-2-(2-fluoro-4-iodo-phenylamino)-N-(2-hydroxy-3-morpholin-4-yl-propoxy)-benzamide] | 13.9% | 89.5% | 
25 |  | O=C(NOCC(O)CN1CCOCC1)c1cc(Cl)c(F)c(F)c1Nc1ccc(F)cc1F (centres unmarked) [Example 154, 5-Chloro-2-(2,4-difluoro-phenylamino)-3,4-difluoro-N-(2-hydroxy-3-morpholin-4-yl-propoxy)-benzamide] |  | 8.9% | 51%
26 |  | O=C(NOCC(O)CN1CCOCC1)c1ccc(F)c(F)c1Nc1ccc(Cl)cc1F (centres unmarked) [Example 155, 2-(4-Chloro-2-fluoro-phenylamino)-3,4-difluoro-N-(2-hydroxy-3-morpholin-4-yl-propoxy)-benzamide] | 0% | 30.9% | 
27 | 7.96 | CC(O)CONC(=O)c1ccc(F)c(F)c1Nc1ccc(I)cc1Cl (centres unmarked) [Example 156, 2-(2-Chloro-4-iodo-phenylamino)-3,4-difluoro-N-(2-hydroxy-propoxy)-benzamide] |  |  | 
28 |  | Cc1cc(I)ccc1Nc1c(C(=O)NOCC(C)O)cc(F)c(F)c1F (centres unmarked) [Example 157, 3,4,5-Trifluoro-N-(2-hydroxy-propoxy)-2-(4-iodo-2-methyl-phenylamino)-benzamide] | 50.7% | 91.5% | 
29 |  | Cc1cc(I)ccc1Nc1c(C(=O)NOCC(C)O)cc(Br)c(F)c1F (centres unmarked) [Example 159, 5-Bromo-3,4-difluoro-N-(2-hydroxy-propoxy)-2-(4-iodo-2-methyl-phenylamino)-benzamide] | 88.4% | 100% | 
30 |  | CC(O)CONC(=O)c1cc(F)c(F)c(F)c1Nc1ccc(I)cc1Cl (centres unmarked) [Example 160, 2-(2-Chloro-4-iodo-phenylamino)-3,4,5-trifluoro-N-(2-hydroxy-propoxy)-benzamide] | 71.9% | 96.8% | 
31 | 7.82 | CC(O)CONC(=O)c1cc(Cl)c(F)c(F)c1Nc1ccc(I)cc1Cl (centres unmarked) [Example 161, 5-Chloro-2-(2-chloro-4-iodo-phenylamino)-3,4-difluoro-N-(2-hydroxy-propoxy)-benzamide] |  |  | 
32 | 8.11 | Cc1cc(I)ccc1Nc1c(C(=O)NOCC(C)O)ccc(F)c1F (centres unmarked) [Example 162, 3,4-Difluoro-N-(2-hydroxy-propoxy)-2-(4-iodo-2-methyl-phenylamino)-benzamide] |  |  | 
33 |  | Cc1cc(I)ccc1Nc1c(C(=O)NOCC(C)O)cc(Cl)c(F)c1F (centres unmarked) [Example 163, 5-Chloro-3,4-difluoro-N-(2-hydroxy-propoxy)-2-(4-iodo-2-methyl-phenylamino)-benzamide] | 88.9% | 95.1% | 
34 | 8.52 | CC(O)CONC(=O)c1ccc(F)c(F)c1Nc1ccc(I)cc1F (centres unmarked) [Example 164, 3,4-Difluoro-2-(2-fluoro-4-iodo-phenylamino)-N-(2-hydroxy-propoxy)-benzamide] |  |  | 
35 | 8.40 | CC(O)CONC(=O)c1cc(Cl)c(F)c(F)c1Nc1ccc(I)cc1F (centres unmarked) [Example 165, 5-Chloro-3,4-difluoro-2-(2-fluoro-4-iodo-phenylamino)-N-(2-hydroxy-propoxy)-benzamide] |  |  | 
